These results are taken from PubChem BioAssay (NCI).

Molecules are shown by their SMILES.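 Step 1: Grow cells in 96-well plates. Step 2: Expose to compound for 48 hours at 5 concentrations. Step 3: Interpolate endpoints linearly; if unreached, use highest concentration. GI50 is the concentration that inhibits growth by half. TGI: concentration producing complete growth inhibition.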

Test systems include IGROV1 ovarian; 786-0 renal; SNB-75 CNS; RXF 393 renal; M14 melanoma; SF-295 CNS; HOP-62 NSCLC; UO-31 renal; KM20L2 colon.
Experiment in all cases: NCI-60 cell line screen, 48 h

As to `CN(Cc1cccc(F)c1)c1ccc(CO)c(Cl)c1`, the GI50 is 0.361 µM in the assay on IGROV1 ovarian; 13 µM with 786-0 renal; 14.4 µM with SNB-75 CNS; 8.72 µM in the assay with RXF 393 renal; 20.4 µM in the assay with M14 melanoma; 3.6 µM in the assay with SF-295 CNS. In addition, the GI50 was 4.84 µM with HOP-62 NSCLC and 10.3 µM in the assay with UO-31 renal. Moreover, the TGI in the assay on IGROV1 ovarian is 3.05 µM; with 786-0 renal, 41.2 µM; in the assay with SNB-75 CNS, 51.6 µM; in the assay with RXF 393 renal it was 41.7 µM; in the assay with M14 melanoma, 83 µM; with SF-295 CNS, greater than 100 µM. Further, the results for the TGI in the assay with HOP-62 NSCLC and with UO-31 renal were 47.8 µM and 75.5 µM, respectively.
On to `CCOC(=O)c1c(C)n(Cc2ccccc2)c2c1cc(O)c1[nH]c(Cc3ccccc3)nc12`, for which the GI50 in the assay with IGROV1 ovarian is 15.8 µM; in the assay on 786-0 renal, 20.2 µM; in the assay with SNB-75 CNS, 8.04 µM; in the assay with RXF 393 renal, 3.4 µM; in the assay with M14 melanoma, greater than 50.7 µM; in the assay with SF-295 CNS it was 11.3 µM. The results for the GI50 in the assay on HOP-62 NSCLC and with UO-31 renal were 17.4 µM and greater than 32.9 µM, respectively. Also, the TGI in the assay on IGROV1 ovarian was greater than 57.7 µM; in the assay with 786-0 renal, 72 µM; in the assay with SNB-75 CNS, 42.3 µM; in the assay with RXF 393 renal it was 14.8 µM; with M14 melanoma, greater than 100 µM; with SF-295 CNS it was 44.4 µM. Besides, the values for the TGI in the assay with HOP-62 NSCLC and in the assay with UO-31 renal were greater than 85.6 µM and greater than 51.4 µM, respectively.
Turning to `Oc1ccc(-c2nc3ccc4[nH]ncc4c3c3c2CCCC3)c(F)c1`, the GI50 in the assay on IGROV1 ovarian was 2.8 µM; in the assay with 786-0 renal it was 2.5 µM; in the assay on SNB-75 CNS, 2.02 µM; in the assay on RXF 393 renal, 1.47 µM; in the assay with M14 melanoma it was 1.07 µM; in the assay on SF-295 CNS it was 3.81 µM. Besides, the GI50 is 1.5 µM in the assay on HOP-62 NSCLC and 2.6 µM in the assay on UO-31 renal. Besides, the TGI worked out at 12.4 µM in the assay on IGROV1 ovarian; 12.1 µM in the assay on 786-0 renal; 7.05 µM in the assay with SNB-75 CNS; 5.63 µM in the assay on RXF 393 renal; 12 µM in the assay on M14 melanoma; 14.3 µM with SF-295 CNS. The results for the TGI in the assay on HOP-62 NSCLC and with UO-31 renal were 5.47 µM and 8.35 µM, respectively.
`CC(C)N1CCN(Cc2ccc3c(NNC(=O)c4ccccc4)nc4cc(F)ccc4n23)CC1`: the GI50 in the assay with IGROV1 ovarian is 0.406 µM; with 786-0 renal, 0.323 µM; in the assay on SNB-75 CNS, 0.451 µM; in the assay with RXF 393 renal it was 0.792 µM; in the assay with M14 melanoma, 0.23 µM; in the assay with SF-295 CNS it was 0.277 µM. For the same molecule, the GI50 with HOP-62 NSCLC was 0.176 µM; in the assay with UO-31 renal, 0.0688 µM. Moreover, the TGI with IGROV1 ovarian turned out to be 14.1 µM; in the assay with 786-0 renal, 6.01 µM; in the assay with SNB-75 CNS, 7.24 µM; with RXF 393 renal, 8.87 µM; in the assay on M14 melanoma, 3.28 µM; with SF-295 CNS, 1.69 µM. Further, the TGI was 13.7 µM in the assay with HOP-62 NSCLC and 3.14 µM with UO-31 renal.
With `CCN(Cc1ccc(F)cc1)c1ccc(CO)c(C)c1`, the GI50 in the assay with IGROV1 ovarian is 1.25 µM; in the assay with 786-0 renal, 13 µM; with SNB-75 CNS it was 4.1 µM; in the assay with RXF 393 renal, 8.47 µM; in the assay on M14 melanoma it was 14.3 µM; with SF-295 CNS, 10.9 µM. Also, the GI50 is 17.7 µM with HOP-62 NSCLC and 9.34 µM in the assay on UO-31 renal. Moreover, the TGI in the assay with IGROV1 ovarian stood at 6.16 µM; in the assay with 786-0 renal it was 29.5 µM; in the assay on SNB-75 CNS, 20.2 µM; in the assay with RXF 393 renal it was 23.3 µM; with M14 melanoma it was 37.6 µM; with SF-295 CNS, 32.8 µM. The figures for the TGI with HOP-62 NSCLC and in the assay on UO-31 renal were 39.1 µM and 25.1 µM, respectively.
Regarding `CCOc1cc(Br)c(C(C)NC(=O)c2cccc(OC)c2)cc1OCC` (configuration not stated), the GI50 in the assay with IGROV1 ovarian is 22.3 µM; with 786-0 renal, 20.4 µM; in the assay with SNB-75 CNS it was 6.04 µM; in the assay with RXF 393 renal, 12.6 µM; in the assay with M14 melanoma it was 4.38 µM; in the assay on SF-295 CNS it was 8.3 µM. In addition, the GI50 with HOP-62 NSCLC was 10.6 µM; in the assay on UO-31 renal, 12.1 µM. The TGI is greater than 100 µM in the assay on IGROV1 ovarian; greater than 100 µM in the assay with 786-0 renal; 51.7 µM with SNB-75 CNS; greater than 100 µM with RXF 393 renal; greater than 100 µM in the assay on M14 melanoma; greater than 89.5 µM in the assay with SF-295 CNS. The TGI with HOP-62 NSCLC and with UO-31 renal was greater than 100 µM in each case.
Consider `O=C(CC1(O)C(=O)Nc2ccc(Br)cc21)c1ccc(Cl)cc1Cl` (configuration not stated), for which the TGI in the assay with KM20L2 colon, in the assay on IGROV1 ovarian, in the assay with 786-0 renal, in the assay on SNB-75 CNS, in the assay on RXF 393 renal and in the assay on M14 melanoma was greater than 100 µM each time. Further, the TGI in the assay with SF-295 CNS, in the assay on HOP-62 NSCLC and with UO-31 renal was greater than 100 µM throughout.
As for `O=[N+]([O-])c1ccc(Oc2nc(Nc3ccc(O[C@H]4CO[C@H]5[C@@H]4OC[C@@H]5O)c(Cl)c3)ncc2F)c(Cl)c1`, the GI50 with IGROV1 ovarian is 0.493 µM; in the assay with 786-0 renal, 1.3 µM; in the assay with SNB-75 CNS it was 0.443 µM; in the assay on RXF 393 renal it was 0.787 µM; in the assay with M14 melanoma, 0.565 µM; in the assay with SF-295 CNS it was 1.39 µM. Further, the figures for the GI50 with HOP-62 NSCLC and in the assay on UO-31 renal were 1.63 µM and 1.6 µM, respectively. In addition, the TGI is 2.77 µM in the assay with IGROV1 ovarian; 4.24 µM in the assay on 786-0 renal; 3.28 µM with SNB-75 CNS; 2.91 µM in the assay with RXF 393 renal; 1.93 µM in the assay with M14 melanoma; 2.92 µM in the assay on SF-295 CNS. For the same molecule, the TGI is 4.65 µM with HOP-62 NSCLC and 4.81 µM in the assay with UO-31 renal.
For `COc1cccc(/C=N/NC(=S)NC2CC3CCC2C3)c1O` (configuration not stated), the GI50 is 10 µM in the assay with IGROV1 ovarian; 19.5 µM in the assay with 786-0 renal; 1.58 µM in the assay with SNB-75 CNS; 13 µM in the assay on RXF 393 renal; 9.92 µM with M14 melanoma; 4.63 µM with SF-295 CNS. Besides, the GI50 was 3.01 µM in the assay on HOP-62 NSCLC and 2.3 µM in the assay on UO-31 renal. The TGI was found to be 35.1 µM with IGROV1 ovarian; 39.6 µM with 786-0 renal; 5.47 µM in the assay with SNB-75 CNS; 28.1 µM in the assay on RXF 393 renal; 31.9 µM in the assay on M14 melanoma; 18 µM in the assay with SF-295 CNS. The TGI in the assay on HOP-62 NSCLC turned out to be 10 µM; with UO-31 renal it was 9.93 µM.
